Here are results for 2 compounds from ChEMBL document CHEMBL4622979, “Non-rigid Diarylmethyl Analogs of Baloxavir as Cap-Dependent Endonuclease Inhibitors of Influenza Viruses” (J Med Chem, 2020).

Series [1] is described as follows: AUCinfinity in CD1 mouse liver assessed as baloxavir acid level at 15 mg/kg, po administered as single dose measured up to 24 hrs by LC-MS/MS analysis. It counts as ADME, organism-based. More on the design: dose 15 mg/kg, route oral, time infinity. To be noted: in vivo.
Series [2] in a line: Half life in CD1 mouse lung assessed as baloxavir acid level at 15 mg/kg, po administered as single dose measured up to 24 hrs by LC-MS/MS analysis. It counts as ADME, organism-based. To be noted: in vivo.
Series [3] in a line: AUCinfinity in CD1 mouse lung assessed as baloxavir acid level at 15 mg/kg, po administered as single dose measured up to 24 hrs by LC-MS/MS analysis. To be noted: in vivo. More on the design: dose 15 mg/kg, route oral, time infinity. It counts as ADME, organism-based.
The nature of series [4]: Cmax in CD1 mouse small intestine assessed as baloxavir acid level at 15 mg/kg, po administered as single dose measured up to 24 hrs by LC-MS/MS analysis. More on the design: dose 15 mg/kg, route oral. The settings on record: in vivo. It counts as ADME, organism-based.
The nature of series [5]: Half life in CD1 mouse spleen assessed as baloxavir acid level at 15 mg/kg, po administered as single dose measured up to 24 hrs by LC-MS/MS analysis. The series is classed as ADME, organism-based. The settings on record: in vivo.
Series [6] is described as follows: AUCinfinity in CD1 mouse spleen assessed as baloxavir acid level at 15 mg/kg, po administered as single dose measured up to 24 hrs by LC-MS/MS analysis. The series is classed as ADME, organism-based. The arrangement: dose 15 mg/kg, route oral, time infinity. The settings on record: in vivo.
Series [7] is described as follows: Acute toxicity in CD1 mouse assessed as effect on food consumption at 2000 mg/kg, po measured for 2 weeks. The series is classed as organism-based. To be noted: in vivo, 336 h.
A short description of series [8]: Acute toxicity in CD1 mouse assessed as effect on intestine at 2000 mg/kg, po measured after 2 weeks by macroscopic analysis. To be noted: in vivo, 336 h. The series is classed as organism-based.
The nature of series [9]: Ratio of Cmax in CD1 mouse lung to plasma assessed as (12aR)-12-(Diphenylmethyl)-7-hydroxy-3,4,12,12a-tetrahydro-1H-[1,4]oxazino[3,4-c]pyrido[2,1-f ][1,2,4]triazine-6,8-dione level at 15 mg/kg, po administered as single dose by LC-MS/MS analysis. It counts as ADME, organism-based. The settings on record: other tissue.
The nature of series [10]: Half life in CD1 mouse plasma assessed as (12aR)-12-(Diphenylmethyl)-7-hydroxy-3,4,12,12a-tetrahydro-1H-[1,4]oxazino[3,4-c]pyrido[2,1-f ][1,2,4]triazine-6,8-dione level at 15 mg/kg, po administered as single dose measured up to 24 hrs by LC-MS/MS analysis. It counts as ADME, organism-based. The settings on record: in vivo.
Series [11] is described as follows: Tmax in CD1 mouse plasma assessed as (12aR)-12-(Diphenylmethyl)-7-hydroxy-3,4,12,12a-tetrahydro-1H-[1,4]oxazino[3,4-c]pyrido[2,1-f ][1,2,4]triazine-6,8-dione level at 15 mg/kg, po administered as single dose measured up to 24 hrs by LC-MS/MS analysis. The series is classed as ADME, organism-based. The settings on record: in vivo.
Series [12] can be described thus: MRTlast in CD1 mouse plasma assessed as (12aR)-12-(Diphenylmethyl)-7-hydroxy-3,4,12,12a-tetrahydro-1H-[1,4]oxazino[3,4-c]pyrido[2,1-f ][1,2,4]triazine-6,8-dione level at 15 mg/kg, po administered as single dose measured up to 24 hrs by LC-MS/MS analysis. The series is classed as ADME, organism-based. To be noted: in vivo.
A short description of series [13]: Tmax in CD1 mouse blood assessed as (12aR)-12-(Diphenylmethyl)-7-hydroxy-3,4,12,12a-tetrahydro-1H-[1,4]oxazino[3,4-c]pyrido[2,1-f ][1,2,4]triazine-6,8-dione level at 15 mg/kg, po administered as single dose measured up to 24 hrs by LC-MS/MS analysis. It counts as ADME, organism-based. To be noted: in vivo.
Series [14] in a line: AUClast in CD1 mouse blood assessed as (12aR)-12-(Diphenylmethyl)-7-hydroxy-3,4,12,12a-tetrahydro-1H-[1,4]oxazino[3,4-c]pyrido[2,1-f ][1,2,4]triazine-6,8-dione level at 15 mg/kg, po administered as single dose measured up to 24 hrs by LC-MS/MS analysis. The settings on record: in vivo. The series is classed as ADME, organism-based.
A short description of series [15]: Cmax in CD1 mouse liver assessed as (12aR)-12-(Diphenylmethyl)-7-hydroxy-3,4,12,12a-tetrahydro-1H-[1,4]oxazino[3,4-c]pyrido[2,1-f ][1,2,4]triazine-6,8-dione level at 15 mg/kg, po administered as single dose measured up to 24 hrs by LC-MS/MS analysis. It counts as ADME, organism-based. More on the design: dose 15 mg/kg, route oral. To be noted: in vivo.
Series [16] is described as follows: MRTlast in CD1 mouse liver assessed as (12aR)-12-(Diphenylmethyl)-7-hydroxy-3,4,12,12a-tetrahydro-1H-[1,4]oxazino[3,4-c]pyrido[2,1-f ][1,2,4]triazine-6,8-dione level at 15 mg/kg, po administered as single dose measured up to 24 hrs by LC-MS/MS analysis. It counts as ADME, organism-based. The settings on record: in vivo.
Series [17] is described as follows: Half life in CD1 mouse kidney assessed as (12aR)-12-(Diphenylmethyl)-7-hydroxy-3,4,12,12a-tetrahydro-1H-[1,4]oxazino[3,4-c]pyrido[2,1-f ][1,2,4]triazine-6,8-dione level at 15 mg/kg, po administered as single dose measured up to 24 hrs by LC-MS/MS analysis. The settings on record: in vivo. The series is classed as ADME, organism-based.
Series [18] in a line: AUCinfinity in CD1 mouse trachea assessed as (12aR)-12-(Diphenylmethyl)-7-hydroxy-3,4,12,12a-tetrahydro-1H-[1,4]oxazino[3,4-c]pyrido[2,1-f ][1,2,4]triazine-6,8-dione level at 15 mg/kg, po administered as single dose measured up to 24 hrs by LC-MS/MS analysis. It counts as ADME, organism-based. The settings on record: in vivo. The arrangement: dose 15 mg/kg, route oral, time infinity.

A short description of series [19]: MRTlast in CD1 mouse trachea assessed as (12aR)-12-(Diphenylmethyl)-7-hydroxy-3,4,12,12a-tetrahydro-1H-[1,4]oxazino[3,4-c]pyrido[2,1-f ][1,2,4]triazine-6,8-dione level at 15 mg/kg, po administered as single dose measured up to 24 hrs by LC-MS/MS analysis. To be noted: in vivo. It counts as ADME, organism-based.
Series [20] is described as follows: Elimination rate constant in CD1 mouse brain assessed as (12aR)-12-(Diphenylmethyl)-7-hydroxy-3,4,12,12a-tetrahydro-1H-[1,4]oxazino[3,4-c]pyrido[2,1-f ][1,2,4]triazine-6,8-dione level at 15 mg/kg, po administered as single dose measured up to 24 hrs by LC-MS/MS analysis. It counts as ADME, organism-based. The settings on record: in vivo.
A short description of series [21]: Cmax in CD1 mouse brain assessed as (12aR)-12-(Diphenylmethyl)-7-hydroxy-3,4,12,12a-tetrahydro-1H-[1,4]oxazino[3,4-c]pyrido[2,1-f ][1,2,4]triazine-6,8-dione level at 15 mg/kg, po administered as single dose measured up to 24 hrs by LC-MS/MS analysis. The series is classed as ADME, organism-based. The arrangement: dose 15 mg/kg, route oral. The settings on record: in vivo.

Series [22] in a line: MRTlast in CD1 mouse brain assessed as (12aR)-12-(Diphenylmethyl)-7-hydroxy-3,4,12,12a-tetrahydro-1H-[1,4]oxazino[3,4-c]pyrido[2,1-f ][1,2,4]triazine-6,8-dione level at 15 mg/kg, po administered as single dose measured up to 24 hrs by LC-MS/MS analysis. The series is classed as ADME, organism-based. To be noted: in vivo.
Series [23] can be described thus: MRTlast in CD1 mouse spleen assessed as (12aR)-12-(Diphenylmethyl)-7-hydroxy-3,4,12,12a-tetrahydro-1H-[1,4]oxazino[3,4-c]pyrido[2,1-f ][1,2,4]triazine-6,8-dione level at 15 mg/kg, po administered as single dose measured up to 24 hrs by LC-MS/MS analysis. The series is classed as ADME, organism-based. The settings on record: in vivo.
Series [24] is described as follows: Tmax in CD1 mouse muscle assessed as (12aR)-12-(Diphenylmethyl)-7-hydroxy-3,4,12,12a-tetrahydro-1H-[1,4]oxazino[3,4-c]pyrido[2,1-f ][1,2,4]triazine-6,8-dione level at 15 mg/kg, po administered as single dose measured up to 24 hrs by LC-MS/MS analysis. It counts as ADME, organism-based, Muscle tissue. The settings on record: in vivo.

By Cmax is commonly meant the peak of the concentration-time curve. On to `COC(=O)OCOc1c2n(ccc1=O)N([C@@H]1c3ccccc3SCc3c1ccc(F)c3F)[C@@H]1COCCN1C2=O` [BALOXAVIR MARBOXIL], for which the AUC was 85348 ng·h/g in series [1], 9025 ng·h/g in series [3] and 3640 ng·h/g in [6]. Besides, the figures for the t1/2 in series [2] and in series [5] were 3.4 h and 3.51 h, respectively. Further, in series [4], the maximum concentration (Cmax) worked out at 53413 ng/g.
By Tmax is commonly meant the time from dosing to the highest level. On to `COC(=O)OCOc1c2n(ccc1=O)N(C(c1ccccc1)c1ccccc1)[C@@H]1COCCN1C2=O`, for which the Activity result in series [7] and in [8] was “Non-Toxic” each time. For the same compound, the Ratio in series [9] is listed as 2.2. Besides, the t1/2 in [10] turned out to be 1.58 h; in series [17] it was 2.57 h. Further, the time of peak concentration (Tmax) in series [11], in series [13] and in [24] was 0.5 h in each case. In addition, the MRTlast in [12] amounted to 1.67 h; in [16], 2.31 h; in [19] it was 3.55 h; in series [22] it was 3.33 h; in series [23], 1.89 h. In addition, the AUClast in series [14] is 2746 ng·h/g. Moreover, the peak concentration (Cmax) in series [15] is 12775 ng/g; in series [21], 98 ng/g. Moreover, the AUC in [18] stood at 10875 ng·h/g. For the same compound, in [20], the Kel was 0.08 h⁻¹.
